IC50, Emax and % transactivation relative to ATRA data for 17 molecules are collected here from patent US6083973A, “Methods for inhibiting mucin secretion using RAR α selective antagonists” (Syntex (U.S.A.) Inc., priority 1999, dated 2000).

Assay [1] has as its target T1, RARα (Homo sapiens, UniProt P10276).
T1 sequence (P10276 1-462): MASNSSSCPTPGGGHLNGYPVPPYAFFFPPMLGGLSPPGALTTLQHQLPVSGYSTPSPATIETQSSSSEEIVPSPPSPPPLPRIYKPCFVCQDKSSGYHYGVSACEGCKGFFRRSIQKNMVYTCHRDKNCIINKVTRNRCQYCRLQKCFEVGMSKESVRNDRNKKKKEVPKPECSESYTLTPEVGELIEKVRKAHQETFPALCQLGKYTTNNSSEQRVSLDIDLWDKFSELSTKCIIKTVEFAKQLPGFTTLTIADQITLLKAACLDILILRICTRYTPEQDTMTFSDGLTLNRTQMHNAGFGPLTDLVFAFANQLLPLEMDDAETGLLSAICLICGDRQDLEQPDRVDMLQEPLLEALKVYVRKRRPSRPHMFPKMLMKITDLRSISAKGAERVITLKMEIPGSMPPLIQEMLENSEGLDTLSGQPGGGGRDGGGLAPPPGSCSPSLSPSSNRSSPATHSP
Put plainly: RAR binding, competition with labelled ATRA, α. The protocol: (§1) The term "IC50 " of a retinoid for a retinoic acid receptor refers to the concentration of the retinoid at which binding by ATRA to that particular receptor is inhibited by 50%. Binding is measured by competition of the retinoid with labelled ATRA.
(§2) The RARα antagonist selectivity of a compound can be determined by routine ligand binding assays known to one of skill in the art such as described in C. Apfel, et al. Proc. Nat. Sci. Acad. (USA), 89:7129-7133 (1992); M. Teng, et al, J. Med. Chem., 40:2445-2451 (1997); and PCT Publication WO 96/30009.

Assay [2] deals with T2, RARγ (Homo sapiens, UniProt P13631).
T2 sequence (P13631 1-454): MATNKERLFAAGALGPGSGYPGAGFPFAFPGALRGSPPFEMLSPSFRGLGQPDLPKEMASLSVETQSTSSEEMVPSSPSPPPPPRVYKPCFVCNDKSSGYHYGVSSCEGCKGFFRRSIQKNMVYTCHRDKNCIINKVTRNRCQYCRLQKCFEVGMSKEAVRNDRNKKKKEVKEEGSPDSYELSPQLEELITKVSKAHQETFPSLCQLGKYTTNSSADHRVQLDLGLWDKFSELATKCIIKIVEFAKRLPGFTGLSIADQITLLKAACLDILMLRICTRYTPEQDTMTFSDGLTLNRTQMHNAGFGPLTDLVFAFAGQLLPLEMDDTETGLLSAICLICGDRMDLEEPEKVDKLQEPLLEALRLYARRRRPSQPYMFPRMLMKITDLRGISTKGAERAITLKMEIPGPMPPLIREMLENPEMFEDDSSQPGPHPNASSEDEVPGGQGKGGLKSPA
Put plainly: Transactivation of RARγ relative to ATRA. Conditions: both compounds at 10000 nM, read-out: Transactivation EC50 % MAX, RARγ. The class given is biochemical. The method, then: (§3) As used herein, the term "EC50 " of a retinoid for a retinoic acid receptor means the transactivation by the retinoid of the particular retinoic acid receptor under consideration relative to the transactivation of that same receptor by ATRA under identical conditions with both retinoids at the same concentration (1000 nM or 10000 nM depending on the highest concentration tested). Values are expressed as a percentage.
(§4) As used herein, the term "transactivation" refers to the ability of a retinoid to activate the transcription of a gene where the gene transcription is initiated by the binding of a ligand to the particular retinoic acid receptor being tested, i.e., RARα, RARβ, or RARγ. Determining the ability of a compound to transactivate a retinoic acid receptor may be performed by methods known to those of skill in the art. Examples of such methods are found in Bernard, et al. Biochem. Biophys. Res. Commun., 186:977-983 (1992) and C. Apfel, et al. Proc. Nat. Sci. Acad. (USA), 89:7129-7133 (1992).
(§5) EC50 's were determined relative to ATRA, with both compounds at 10000 nM. Values are expressed as a percentage of transactivation relative to ATRA.

Assay [3] has as its target T3, RARβ (Homo sapiens, UniProt P10826).
T3 sequence (P10826 1-455): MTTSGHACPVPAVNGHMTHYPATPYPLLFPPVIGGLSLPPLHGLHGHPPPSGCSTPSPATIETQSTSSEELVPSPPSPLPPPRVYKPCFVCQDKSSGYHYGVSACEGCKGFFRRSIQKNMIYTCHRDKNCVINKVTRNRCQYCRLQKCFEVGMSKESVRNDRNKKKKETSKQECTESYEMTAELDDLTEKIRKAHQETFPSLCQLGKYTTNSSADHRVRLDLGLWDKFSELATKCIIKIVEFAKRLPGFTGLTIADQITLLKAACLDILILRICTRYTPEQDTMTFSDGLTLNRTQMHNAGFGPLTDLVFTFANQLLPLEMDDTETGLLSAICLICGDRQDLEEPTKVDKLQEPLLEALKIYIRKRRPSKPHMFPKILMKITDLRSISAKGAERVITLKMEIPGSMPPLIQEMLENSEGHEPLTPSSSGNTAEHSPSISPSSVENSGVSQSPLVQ
Put plainly: Transactivation of RARβ relative to ATRA. The class given is biochemical. The conditions noted are these: both compounds at 10000 nM, read-out: Transactivation EC50 % MAX, RARβ. The method, then:
as §3, §4, §5

The target of assay [4] is T1, RARα. Put plainly: Transactivation of RARα relative to ATRA. The conditions noted are these: both compounds at 10000 nM, read-out: Transactivation EC50 % MAX, RARα. The class given is biochemical. The method, then:
as §3, §4, §5

The target in assay [5] is T2, RARγ. Put plainly: RAR binding, competition with labelled ATRA, γ. The method, then: as §1, §2
Assay [6] deals with T3, RARβ. Put plainly: RAR binding, competition with labelled ATRA, β. The method, then:
as §1, §2

pIC50: −log10 of the molar value. Where only a bound is given, the exact number is not on record here.

Broadly, the pIC50 is the negative decadic logarithm of the IC50, by convention in mol/L.

For the molecule `CCCCCCCOc1cc2c(cc1C#Cc1ccc(C(=O)O)cc1)C(C)(C)CCS2(=O)=O`, the pIC50 in assay [1] is 6.62; in assay [5], 5.54; in assay [6], 5.46. The Emax at 10 µM in assay [2] stood at 20%; in assay [4], 18%. The % transactivation relative to ATRA at 10 µM in assay [3] worked out at 6%.
For `CCCCCCCOc1cc2c(cc1/C(C)=C/c1ccc(C(=O)O)cc1)C(C)CCCS2(=O)=O` (stereo not shown), the pIC50 is 6.28 in assay [1], 5.52 in assay [5] and 5.29 in assay [6]. Also, in assay [3], the % transactivation relative to ATRA at 10 µM is 7%. For the same molecule, in assay [4], the Emax at 10 µM came to 5%.
With `CCCCCCCOc1cc2c(cc1/C(C)=C/c1ccc(C(=O)O)cc1)C(C)(C)CCS2(=O)=O` [drawing 3], the pIC50 in assay [1] is 7.11; in assay [5] it was 5.38. The Emax at 10 µM turned out to be 9% in assay [2] and 16% in assay [4]. Moreover, the % transactivation relative to ATRA at 10 µM in assay [3] is 3%.
For `CCCCCCCCOc1cc2c(cc1/C(C)=C/c1ccc(C(=O)O)cc1)C(C)(C)CCCS2(=O)=O`, the figures for the pIC50 in assay [1], in assay [5] and in assay [6] were 6.41, 5.59 and 5.16, respectively. Further, the Emax at 10 µM turned out to be 25% in assay [2] and 8% in assay [4]. Besides, the % transactivation relative to ATRA at 10 µM in assay [3] was found to be 21%.
On to `CCCCCCCOc1cc2c(cc1-c1ccc3cc(C(=O)O)ccc3c1)C(C)(C)CCS2(=O)=O`, for which the pIC50 was 6.44 in assay [1], 5.85 in assay [5] and 5.55 in assay [6]. In addition, the Emax at 10 µM amounted to 14% in assay [2] and 8% in assay [4]. Moreover, in assay [3], the % transactivation relative to ATRA at 10 µM is 17%.
Consider `CCCCCCCCc1cc2c(cc1/C(C)=C/c1ccc(C(=O)O)cc1)C(C)(C)CCS2(=O)=O`, for which the pIC50 in assay [1] was 7.15; in assay [5], 5.64; in assay [6] it was 5.72. The Emax at 10 µM in assay [2] stood at 32%; in assay [4] it was 16%. Further, the % transactivation relative to ATRA at 10 µM in assay [3] came to 15%.
For `CCCCCCCOc1cc2c(cc1/C(C)=C/C=C/C(C)=C/C(=O)O)C(C)(C)CCS2(=O)=O` [drawing 4], the pIC50 in assay [1] is 7.57; in assay [5] it was 5.62; in assay [6], 5.29. Besides, the Emax at 10 µM came to 16% in assay [2] and 9% in assay [4]. In assay [3], the % transactivation relative to ATRA at 10 µM worked out at 14%.
In the case of `CCCCCCCOc1cc2c(cc1\C(C)=C/C=C/C(C)=C/C(=O)O)C(C)(C)CCS2(=O)=O`, the pIC50 in assay [1] was 6.35; in assay [5], below 5.00; in assay [6], below 5.00. The Emax at 10 µM in assay [2] was 20%; in assay [4], 24%. Also, in assay [3], the % transactivation relative to ATRA at 10 µM is 31%.
Take `CCCCCCCOc1cc2c(cc1/C(C)=C/C=C/C(C)=C/C(=O)O)C(C)(C)CCCS2(=O)=O`: the values for the pIC50 in assay [1], in assay [5] and in assay [6] were 6.74, 5.66 and 5.19, respectively. In addition, the Emax at 10 µM in assay [2] was found to be 30%; in assay [4], 12%. Further, the % transactivation relative to ATRA at 10 µM in assay [3] is 20%.
Consider `CCCCCCCOc1cc2c(cc1/C(C)=C/C=C/C(C)=C/C(=O)O)C(C)(C)CCS2`, for which the results for the pIC50 in assay [1], in assay [5] and in assay [6] were 6.70, above 5.00 and above 5.00, respectively. For the same molecule, the Emax at 10 µM in assay [2] amounted to 36%; in assay [4] it was 27%. Besides, the % transactivation relative to ATRA at 10 µM in assay [3] was 17%.
In the case of `CCCCCCCOc1cc2c(cc1/C(C)=C/c1ccc(C(=O)O)cc1)C(C)(C)CS2(=O)=O`, the pIC50 in assay [1] was 6.80; in assay [5], 5.47; in assay [6] it was 5.16. Further, the results for the Emax at 10 µM in assay [2] and in assay [4] were 24% and 11%, respectively. The % transactivation relative to ATRA at 10 µM in assay [3] stood at 22%.
With `CCCCCCCOc1cc2c(cc1/C(C)=C/c1ccc(C(=O)O)cc1)C(C)(C)CCCS2(=O)=O`, the pIC50 in assay [1] was 6.72; in assay [5], 5.60; in assay [6], 5.52. Besides, the values for the Emax at 10 µM in assay [2] and in assay [4] were 18% and 14%, respectively. Also, the % transactivation relative to ATRA at 10 µM in assay [3] was determined as 7%.
Consider `CCCCCCOc1cc2c(cc1/C(C)=C/c1ccc(C(=O)O)cc1)C(C)(C)CCCS2(=O)=O`, for which the pIC50 in assay [1] is 6.24; in assay [5], 5.59; in assay [6], 5.42. For the same molecule, the Emax at 10 µM in assay [2] is 54%; in assay [4], 14%. Also, the % transactivation relative to ATRA at 10 µM in assay [3] amounted to 37%.
For `CCCCCCCOc1cc2c(cc1/C(C)=C/C=C/C(C)=C/C(=O)O)C(C)(C)CC[S+]2[O-]` (stereo not shown), the pIC50 in assay [1] is 6.36; in assay [5] it was 5.43; in assay [6] it was below 5.00. For the same molecule, the Emax at 10 µM in assay [2] was found to be 11%; in assay [4], 13%. Also, the % transactivation relative to ATRA at 10 µM in assay [3] is 10%.
In the case of `CCCCCCCCc1cc2c(cc1/C(C)=C/C=C/C(C)=C/C(=O)O)C(C)(C)CCCS2(=O)=O`, the pIC50 in assay [1] is 7.33; in assay [5], 6.00; in assay [6], 5.31. Further, the Emax at 10 µM in assay [2] was 33%; in assay [4], 11%. Further, the % transactivation relative to ATRA at 10 µM in assay [3] came to 35%.
As for `CCCCCCCCc1cc2c(cc1/C(C)=C/c1ccc(C(=O)O)cc1)C(C)(C)CCCS2(=O)=O`, the values for the pIC50 in assay [1], in assay [5] and in assay [6] were 6.70, 5.74 and 5.48, respectively. Further, the values for the Emax at 10 µM in assay [2] and in assay [4] were 36% and 18%, respectively. In assay [3], the % transactivation relative to ATRA at 10 µM was 13%.
Regarding `CCCCCCOc1cc2c(cc1/C(C)=C/C=C/C(C)=C/C(=O)O)C(C)(C)CCCS2(=O)=O`, the pIC50 in assay [1] was 6.60; in assay [5] it was 5.89; in assay [6] it was 5.60. For the same molecule, the Emax at 10 µM is 46% in assay [2] and 20% in assay [4]. Also, in assay [3], the % transactivation relative to ATRA at 10 µM is 32%.
